{
  "source": "patent US6627664B2",
  "about": "“Perylenequinones for use as sonosensitizers” (Altachem Pharma Ltd., priority 2001, dated 2003)",
  "key": {"[1]": {"tested_on": "sarcoma 180 cells", "details": "80 μM, insonated, versus ultrasound alone; cited from earlier work"}, "[2]": {"details": "same concentration as Hp; cited from earlier work"}, "[3]": {"details": "insonated solutions, TMPone; cited from earlier work"}, "[4]": {"tested_on": "sarcoma 180 cells", "details": "56 mg/kg administered before insonation; cited from earlier work"}, "[5]": {"tested_on": "uterine cervical squamous cell carcinomas", "details": "with ultrasound; cited from earlier work"}, "[6]": {"tested_on": "cell lines", "details": "tone-burst and pulsed ultrasound; cited from earlier work"}, "[7]": {"assay": "Singlet oxygen (1O2) yield", "assay_type": "physicochemical"}, "[8]": {"tested_on": "cells", "details": "for Photopotentiation Factor: LD50 dark divided by LD50 light; for LD50 Light: light dose not fixed, 0.75-1.0 J/cm2 of 630 nm light", "excerpt": "As used herein, “photopotentiation factor” refers to the property of the compound(s) to exert light- or sound-mediated toxicity in excess of its (their) inherent unactivated toxicity. […] Where the term “LD50” has been used above, the term “IC50” may be substituted, to address the bioassays that concern metabolic activity rather than the endpoint of lethality, loss of reproductive capability, or clonogenic death. The relative photoactivation efficiency of a compound may also be determined using a clonogenic assay, an assay that is well known to those skilled in the art.\nIn accordance with the present invention, a desirable PQP derivative is one that is non-toxic (or of low toxicity) at high drug concentrations without activation, i.e., without light (also referred to as “dark”), and/or without sound, and is toxic at low concentrations when light of the appropriate wavelength, or sound of the appropriate frequency, is applied. As is recognized by those skilled in the art, the most desirable compounds are those that provide a wide range of non-toxic doses in an unactivated state, as this characteristic provides an increased safety factor for the patient."}, "[9]": {"tested_on": "EMT6/Ed cells", "assay": "Cellular uptake by 14C-labeling and confocal laser scanning microscopy", "details": "CLSM"}, "[10]": {"tested_on": "EMT6/Ed tumors", "assay": "EMT6/Ed tumor control after 630 nm light applied transcutaneously", "assay_type": "in vivo, Balb/c mice", "details": "50 μmol/kg body weight", "method": "Both the concentration of drug and the dosage of light are important for treatment of tumors.\nEMT6/Ed tumor control in Balb/c mice following various doses of 630 nm light applied transcutaneously. HBEA-R1 was administered at a fixed dose. True control represents animals given neither photosensitizer nor laser light. The animals were treated approximately 7 days following tumor implantation, and euthanized when tumors reached four times treatment volume."}, "[11]": {"tested_on": "cell suspension", "assay": "Oxygen dependency of phototoxicity", "assay_type": "cell-based", "details": "total absence of oxygen", "excerpt": "Phototoxicity diminishes as the pO2 in the gas phase of the cell suspension is reduced for PDT treatment, from ambient to 0.0%. The oxygen enhancement ratio (O.E.R.) Is 4.0 at the D0."}, "[12]": {"tested_on": "EMT6/Ed cells", "assay": "Propidium iodide determination of apoptotic nuclei", "assay_type": "cell-based", "excerpt": "The background frequency of cells with apoptotic morphology is represented by the untreated control."}, "[13]": {"assay": "Light absorption properties (red spectral region, 630 nm)", "assay_type": "physicochemical", "details": "for A630: absorbance at 630 nm"}, "[14]": {"tested_on": "EMT6/Ed cells"}, "[15]": {"tested_on": "HL-60 cells", "assay": "Sonodynamic toxicity (insonation, surviving fraction)", "assay_type": "cell-based, human", "method": "Sonodynamic toxicity of two perylenequinone derivatives in human promyelocytic leukemia cells in vitro, with respect to a positive control, hematoporphyrin at 1 mM.\nHL-60 cells were treated with perylenequinone sensitizers and insonated as described above. The surviving fractions were plotted against sensitizer concentration. […] Cell survival decreased steeply over the next two decades of sensitizer concentration."}},
  "note": "Like-named read-outs stand apart in the source and are kept apart here. Marks after values point to notes of the source that are not given here.",
  "data": [
    {"molecule": "CCCCCCCCCCOC(C)C1=C(C)c2cc3[n-]c(cc4[n-]c(cc5nc(cc1n2)C(C)=C5C(C)OCCCCCCCCCC)c(C)c4CCC(=O)NC(CC(=O)[O-])C(=O)[O-])c(CCC(=O)NC(CC(=O)[O-])C(=O)[O-])c3C.[Ga+3].[H+].[H+].[H+]", "note": "(stereo not shown) [ATX-70, 2,4-bis(1-decyloxyethyl)-Ga(lll)-1,3,5,8-tetramethylporphryin-6,7-dipropionyl diaspartic acid]", "values": [
      {"measurement": "rate of ultrasound-induced cell damage", "setting": "[1]", "result": "in excess of four times"},
      {"measurement": "ultrasound induced bleaching relative to Hp", "setting": "[2]", "result": "three times as great"},
      {"measurement": "levels of nitroxide relative to solutions containing Hp", "setting": "[3]", "result": 2.5, "unit": "times"}
    ]},
    {"molecule": "C=Cc1c(C)c2cc3nc(c4c5[nH]c(cc6nc(cc1[nH]2)C(C)=C6CC)c(C)c5C(=O)[C@@H]4C(=O)OC)[C@@H](CCC(=O)O)[C@@H]3C", "note": "[Ph-A, Pheophorbide A]", "values": [
      {"measurement": "rate of ultrasound-induced cell damage", "setting": "[1]", "result": "double"},
      {"measurement": "tumor growth", "setting": "[4]", "result": "completely inhibited tumor growth"}
    ]},
    {"molecule": "CCOC(=O)NC1=C(N2CC2)C(=O)C(NC(=O)OCC)=C(N2CC2)C1=O", "note": "[diaziquone]", "values": [
      {"measurement": "antitumour effect measured by volume reduction", "setting": "[5]", "result": "significant antitumour effect"},
      {"measurement": "effect in combination with ultrasound on cytotoxicity", "setting": "[6]", "result": "synergistic effects"}
    ]},
    {"molecule": "COc1cccc2c1C(=O)c1c(O)c3c(c(O)c1C2=O)C[C@@](O)(C(=O)CO)C[C@@H]3O[C@H]1C[C@H](N)[C@H](O)[C@H](C)O1", "note": "[doxorubicin]", "values": [
      {"measurement": "antitumour effect measured by volume reduction", "setting": "[5]", "result": "significant antitumour effect"}
    ]},
    {"molecule": "Ethanolamine-HB [HBEA-R1]", "values": [
      {"measurement": "^1O2 Yield", "setting": "[7]", "result": 0.60},
      {"measurement": "Photopotentiation Factor", "setting": "[8]", "result": "100-167"},
      {"measurement": "LD50 Light", "setting": "[8]", "result": 0.15, "unit": "µM"},
      {"measurement": "cell killing with light", "setting": "[8]; wavelengths between at least 630 and 688 nm", "result": "capable of killing cells"},
      {"measurement": "LD50 Dark", "setting": "[8]; without light", "result": "15 to 25", "unit": "µM"},
      {"measurement": "time until uptake is complete", "setting": "[9]", "result": "≤ 2", "unit": "h"},
      {"measurement": "cure rate", "setting": "[10]; 50 Joules of 630 nm light", "result": 40, "unit": "%"},
      {"measurement": "tumor cure", "setting": "[10]; 100 Joules of 630 nm light", "result": "approximately 90%"},
      {"measurement": "cure rates", "setting": "[10]; lower light dosages", "result": "significantly lower"},
      {"measurement": "phototoxicity without oxygen", "setting": "[11]", "result": "Evidence of type 1—mediated phototoxicity"},
      {"measurement": "apoptotic morphology", "setting": "[12]; PDT, within 48 hours of treatment", "result": 50, "unit": "%"},
      {"measurement": "induction of apoptosis by sensitizer alone", "setting": "[12]; photosensitizing concentrations, no light", "result": "do not induce apoptosis"}
    ]},
    {"molecule": "Hypocrellin B [HB, reference compound]", "values": [
      {"measurement": "Abs. Peak in red Spectral region", "setting": "[13]", "result": "658* nm"},
      {"measurement": "Extinction Coefficient (× 10^−3) (630 nm)", "setting": "[13]", "result": "1.00 × 10^−3"},
      {"measurement": "A630", "setting": "[13]", "result": 0.100},
      {"measurement": "Amax/solvent", "setting": "[13]; solvent DMF", "result": "0.118/DMF"},
      {"measurement": "^1O2 Yield", "setting": "[7]", "result": 0.74},
      {"measurement": "cytotoxicity under uptake conditions", "setting": "[14]", "result": "not cytotoxic"},
      {"measurement": "time until cellular uptake reached equilibrium", "setting": "[14]", "result": "≤ 15", "unit": "min"},
      {"measurement": "Photopotentiation Factor", "setting": "[8]", "result": "10-13"},
      {"measurement": "LD50 Light", "setting": "[8]", "result": "1.5 to 2", "unit": "µM"},
      {"measurement": "LD50 Dark", "setting": "[8]; without light", "result": 20, "unit": "µM"}
    ]},
    {"molecule": "demethylated HB [DMHB]", "values": [
      {"measurement": "Abs. Peak in red Spectral region", "setting": "[13]", "result": "648* nm"},
      {"measurement": "Extinction Coefficient (× 10^−3) (630 nm)", "setting": "[13]", "result": "4.77 × 10^−3"},
      {"measurement": "A630", "setting": "[13]", "result": 0.477},
      {"measurement": "Amax/solvent", "setting": "[13]; solvent EtOH", "result": "0.469/EtOH"},
      {"measurement": "^1O2 Yield", "setting": "[7]", "result": 0.42},
      {"measurement": "LD50 Dark", "setting": "[8]", "result": ">25", "unit": "µM"},
      {"measurement": "Photopotentiation Factor", "setting": "[8]", "result": ">5-8.3"},
      {"measurement": "LD50 Light", "setting": "[8]", "result": "3 to 5", "unit": "µM"},
      {"measurement": "maximum sonotoxic effect", "setting": "[15]; 100 μM to 1000 μM, versus 1000 μM Hp control", "result": "comparable to that of the Hp control"},
      {"measurement": "sonotoxicity", "setting": "[15]; up to 100 μM", "result": "negligible sonotoxicity"}
    ]}
  ]
}
